Test results published in publication PMC12321279, “Novel 4,5‐Dihydrothiazole‐Phenylpiperazine Derivatives: Synthesis, Docking Studies and Pharmacological Evaluation as Serotonergic Agents” (Chemmedchem, 2025).
Read-outs that look alike come from different tables or passages of the source.

What was measured:
5‐HT1A receptor [1] = target: T1, 5‐HT1A receptor (Rattus norvegicus, UniProt P19327); experiment: 5‐HT1A competition binding assay ([3H]8‐OH‐DPAT, hippocampal membranes); details: 1 nM [3H]8‐OH‐DPAT
T1 construct: 80 μg of hippocampal membrane suspension (the 5‐HT1A assay); from tissue; host or cells: rat (Sprague-Dawley) hippocampus membranes
T1 sequence (P19327 1-422): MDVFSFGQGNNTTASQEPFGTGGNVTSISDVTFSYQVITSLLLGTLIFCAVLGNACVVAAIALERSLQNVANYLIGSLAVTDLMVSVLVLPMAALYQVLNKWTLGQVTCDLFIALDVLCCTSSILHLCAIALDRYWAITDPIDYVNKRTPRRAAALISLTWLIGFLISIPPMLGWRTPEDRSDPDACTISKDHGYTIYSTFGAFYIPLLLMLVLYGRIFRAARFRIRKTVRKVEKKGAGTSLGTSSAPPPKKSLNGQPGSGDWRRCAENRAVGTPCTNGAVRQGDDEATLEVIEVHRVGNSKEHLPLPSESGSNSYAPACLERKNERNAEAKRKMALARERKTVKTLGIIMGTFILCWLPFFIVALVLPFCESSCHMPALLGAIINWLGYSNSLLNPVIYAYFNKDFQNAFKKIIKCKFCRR
Protocol: (§1) Sprague‐Dawley rats were sacrificed by isoflurane overdose. Brains were rapidly removed and placed on ice. Hippocampi (for the 5‐HT1A assay) and frontal cortices (for the 5‐HT2A and 5‐HT2C assays) were dissected on a Petri dish. The tissue from 10 rats was homogenized in 30 vol. homogenization buffer (50 mM Tris–HCl, […], 1 mM EDTA, 1 mM dithiothreitol) with a handheld Teflon‐glass homogenizer. The homogenate was centrifuged at 48,000 × g at 4 °C for 15 min. The pellet was suspended and homogenized in the homogenization buffer and incubated for 10 min. at 36 °C. The centrifugation and suspension steps were repeated twice. The final pellet was homogenized in 5 vol. 50 mM Tris–HCl, pH = 7.4 buffer and stored at −80 °C for no longer than 6 months. […] For the 5‐HT2C assay, compounds were incubated in duplicate with 5 nM [^3H]mesulergine (specific activity: 80.2 Ci mmol^−1, Revvity, MA, USA) for 60 min. at 36 °C in a 50 mM Tris‐HCl (pH 7.4) buffer, supplemented with 5 mM MgCl2, 140 mM NaCl, 1 mM DTT, 1 mM CaCl2, 10 μM pargyline and 160μg of the frontal cortex membrane suspension. Non‐specific binding was determined with 10μM serotonin. The final DMSO concentration in the assay was 5%. After incubation, the reaction mixture was deposited onto Unifilter GF/C plates (Revvity, MA, USA) presoaked in 0.4% PEI (or 0.4% PEI and 0.5% Triton X‐100 for the 5‐HT2C assay) for 1 h with the FilterMate‐96 Harvester (Revvity, MA, USA). Then, each well was washed with 2 mL of 50 mM Tris–HCl (pH 7.4) buffer to separate bound ligands from free and the plates were left to dry overnight. Then, 35μl of Microscint‐20 scintillation fluid (Revvity, MA, USA) was added to each filter well and left to equilibrate for 2h. Filter‐bound radioactivity was counted in a MicroBeta2 LumiJet scintillation counter (Revvity, MA, USA). Binding curves were fitted with one site non‐linear regression. Binding affinity (pKi and Ki) for each compound was calculated from the […] values with the Cheng‐Prusoff equation from two separate experiments.

5‐HT2C receptor = target: T2, 5‐HT2C receptor (Rattus norvegicus, UniProt P08909); experiment: 5‐HT2C competition binding assay ([3H]mesulergine, frontal cortex membranes); details: 5 nM [3H]mesulergine
T2 construct: 10 μM pargyline and 160μg of the frontal cortex membrane suspension; from tissue; host or cells: rat (Sprague-Dawley) frontal cortex membranes
T2 sequence (P08909 33-460): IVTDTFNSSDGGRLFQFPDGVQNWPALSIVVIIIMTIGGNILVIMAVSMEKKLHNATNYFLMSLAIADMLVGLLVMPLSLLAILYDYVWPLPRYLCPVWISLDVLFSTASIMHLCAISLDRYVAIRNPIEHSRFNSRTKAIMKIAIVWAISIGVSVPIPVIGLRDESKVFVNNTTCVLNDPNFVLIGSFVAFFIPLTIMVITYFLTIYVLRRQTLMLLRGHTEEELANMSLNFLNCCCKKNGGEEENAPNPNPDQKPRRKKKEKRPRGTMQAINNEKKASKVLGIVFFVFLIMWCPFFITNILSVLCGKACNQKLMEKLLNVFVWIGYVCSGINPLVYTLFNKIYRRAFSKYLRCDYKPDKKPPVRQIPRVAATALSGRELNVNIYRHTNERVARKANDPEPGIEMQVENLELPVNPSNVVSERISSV
Protocol: as §1

5‐HT1A receptor [2] = target: T1, 5‐HT1A receptor; experiment: 5‐HT1A receptor activation in the [35S]GTP‐γ‐S assay (hippocampal membranes); type: biochemical; details: [35S]GTPγS; for Emax (%) ± SEM, 5‐HT1A receptor G‐protein stimulation / pEC50, 5‐HT1A receptor G‐protein stimulation / EC50 (95% CI, μM), 5‐HT1A receptor G‐protein stimulation / EC50 / Emax: rat hippocampal membranes; for agonist activity for the 5‐HT1A receptor (classification in words): efficacy compared with 8‐OH‐DPAT; for Emax: read-out: Emax (%) ± SEM, 5‐HT1A receptor G‐protein stimulation
Protocol: Seven compound concentrations equally spaced on a log scale (10–4 M to 10–10 M) were incubated in duplicate with hippocampal membrane preparations (5μg per well) in assay buffer (50 mM Tris‐HCl, pH = 7.4, 1 mM EGTA, 3 mM MgCl2, 100 mM NaCl, and 30 μM GDP) and 0.08 nM [^35S]GTP‐γ‐S (specific activity: 1250 Ci mmole^−1, Revvity). Nonspecific binding was determined with 10μM of unlabeled GTP‐γ‐S. The final DMSO concentration in the assay was 5%. The reaction mixture was incubated for 90 min. at 30 °C on an orbital shaker set at 250 rpm. Next, the reaction mixture was deposited under vacuum with the FilterMate Harvester (Revvity, USA) onto Unifilter GF/C Plates (Revvity, MA, USA) presoaked with wash buffer (50 mM Tris‐HCl, pH = 7.4). The wells were then rapidly washed with 2 mL of wash buffer. Filter plates were dried overnight at room temperature. Once completely dry, 35 μl of MicroScint PS (Revvity, MA, USA) scintillation fluid was added to each well. Radioactivity was counted in a MicroBeta2 LumiJet scintillation counter (Revvity, MA, USA). Data were analyzed with GraphPad Prism 5.0 software (GraphPad Software, San Diego California USA, www.graphpad.com). The curves were fitted with three‐parameter non‐linear regression model.

5‐HT2A receptor [3] = target: T3, 5‐HT2A receptor (Rattus norvegicus, UniProt P14842); experiment: 5‐HT2A competition binding assay ([3H]ketanserin, frontal cortex membranes); set-up: from tissue; host or cells: rat (Sprague-Dawley) frontal cortex membranes; details: 1 nM [3H]ketanserin
T3 sequence (P14842 whole entry): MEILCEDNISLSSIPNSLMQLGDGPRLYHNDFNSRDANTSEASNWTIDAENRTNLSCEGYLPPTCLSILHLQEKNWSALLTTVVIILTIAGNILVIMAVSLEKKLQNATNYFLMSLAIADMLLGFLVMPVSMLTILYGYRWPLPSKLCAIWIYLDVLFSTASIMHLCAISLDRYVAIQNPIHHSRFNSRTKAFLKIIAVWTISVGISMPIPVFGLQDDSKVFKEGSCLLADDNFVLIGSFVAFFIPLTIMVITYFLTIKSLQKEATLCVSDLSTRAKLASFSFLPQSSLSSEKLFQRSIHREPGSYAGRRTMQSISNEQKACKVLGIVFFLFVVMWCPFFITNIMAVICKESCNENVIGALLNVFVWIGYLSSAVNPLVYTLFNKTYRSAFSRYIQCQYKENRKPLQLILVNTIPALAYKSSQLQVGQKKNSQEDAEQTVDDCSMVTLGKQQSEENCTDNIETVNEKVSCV

5‐HT2A receptor [4] = target: T3, 5‐HT2A receptor; experiment: Inhibition of 5‐HT‐evoked contractions in isolated rat ileum; set-up: segments (1–1.5 cm) of ileum were removed, flushed of luminal contents, and placed in Krebs solution; from tissue; host or cells: isolated rat (Sprague-Dawley) ileum segments; details: 5‐HT 10^−5 M, compounds 10^−8–10^−5 M
Protocol: Male rats (Sprague‐Dawley, 160–200 g; Charles River Laboratories; Calco, Italy) were manipulated and cared for in strict compliance with the principles of laboratory animal care. Experimental procedures were conducted in conformity with Italian (D.L. 26/2014) and European (directive 2010/63/EU) regulations on the protection of animals used for scientific purposes and approved by the Italian Ministry. Animal housing complied with recent pharmacological guidance.^[ [40] ^] All animals weighing 160–200 g were used after a 1‐week acclimation period (temperature 23 ± 2 °C; humidity 60%, free access to water and standard food).
The segments were prepared as previously described:^[ [41] ^] the segments were set up in such a way as to record contractions mainly from the longitudinal axis, in an organ bath containing 20 mL of Krebs solution, bubbled with 95% O2 and 5% CO2 and maintained at 37 °C. The tissues were connected to an isotonic transducer (load: 0.5 g), connected to Power Lab system (Ugo Basile, Comerio, Italy). Ileal segments were equilibrated for 60 min^[ [16] ^] followed by three repeated additions of submaximal concentration of 5‐HT (10^−5 M) in order to record stable control contractions. […] The contact time for each concentration was 10 min. The compounds were dissolved in DMSO. […] Results are expressed as mean (SEM). […] The IC50 and Emax values were calculated with the aid of a computer program (GraphPad Prism 5).

[5] = 95% CI in brackets, read-out: 5‐HT1A Ki (95% CI)
[6] = 95% CI in brackets, read-out: 5‐HT2C Ki (95% CI)
[7] = 95% CI in brackets, read-out: 5‐HT2A Ki (95% CI)
[8] = read-out: 5‐HT1A pKi (converted)
[9] = read-out: 5‐HT2C pKi (converted)
[10] = 95% CI in brackets, read-out: EC50 (95% CI, μM), 5‐HT1A receptor G‐protein stimulation

Row | Structure (SMILES) | Ki (5‐HT1A receptor [1]; [5]) | Ki (5‐HT2C receptor; [6]) | Emax (%) ± SEM, 5‐HT1A receptor G‐protein stimulation (5‐HT1A receptor [2]) | pEC50, 5‐HT1A receptor G‐protein stimulation (5‐HT1A receptor [2]) | EC50 (95% CI, μM), 5‐HT1A receptor G‐protein stimulation (5‐HT1A receptor [2]; 95% CI in brackets) | agonist activity for the 5‐HT1A receptor (classification in words) (5‐HT1A receptor [2]) | Ki (5‐HT2A receptor [3]; [7]) | Ki (5‐HT1A receptor [1]; [8]) | Ki (5‐HT2C receptor; [9]) | EC50 (5‐HT1A receptor [2]; [10]) | Emax (5‐HT1A receptor [2]) | other results
1 | O=C1C2C3C=CC(O3)C2C(=O)N1OCCCN1CCN(c2cccc(C3=NCCS3)c2)CC1 (stereo not shown) [FG‐11, 2‐(3‐(4‐(3‐(4,5‐dihydrothiazol‐2‐yl) phenyl) piperazin‐1‐yl) propoxy)‐3a,4,7,7a‐tetrahydro‐1H‐4,7‐epoxyisoindole‐1,3(2H)‐dione] | 2.2 µM | 40.5 µM | No activity | No activity | No activity | do not express any agonist activity | 1.48 µM | – | – | – | – | Emax (5‐HT2A receptor [4]; read-out: EMAX, maximal inhibitory effect on 5‐HT‐induced contractions in the rat ileum): 28.7%; IC50 (5‐HT2A receptor [4]; IC50, inhibition of 5‐HT‐induced contractions in the rat ileum, contact time 10 min): 4.39 µM
2 | O=C(NCCCN1CCN(c2ccc(C3=NCCS3)cc2)CC1)C1CC2C=CC1C2 (stereo not drawn) [FG‐15, Exo‐N‐(3‐(4‐(4‐(4,5‐dihydrothiazol‐2‐yl)phenyl)piperazin‐1‐yl)propyl) bicyclo [2.2.1] hept‐5‐ene‐2‐carboxamide] | – | 2.36 µM | – | – | – | – | – | 17.8 µM | 2.4 µM | 88.1 µM | 137 ± 4.7% | EC50 (5‐HT1A receptor [2]; read-out: pEC50, 5‐HT1A receptor G‐protein stimulation (converted)): 89.1 µM; Ki (5‐HT2A receptor [3]; read-out: 5‐HT2A pKi (converted)): 4.47 µM
3 | CCCN(CCC)C1CCc2cccc(O)c2C1 (stereo not shown) [8‐OH‐DPAT, 8‐hydroxy‐dipropylaminotetraline, reference compound] | – | – | – | – | – | – | – | – | – | – | 177 ± 1.2% | –
4 | O=C(NCCCN1CCN(c2ccc(C3=NCCS3)cc2)CC1)c1ccccn1 [FG‐3, N‐(3‐(4‐(4‐(4,5‐dihydrothiazol‐2‐yl) phenyl) piperazin‐1‐yl) propyl) picolinamide] | 4.5 µM | 1.46 µM | No activity | No activity | No activity | do not express any agonist activity | 6.3 µM | 4.57 µM | – | – | – | –
5 | O=C(NCCCN1CCN(c2ccccc2C2=NCCS2)CC1)C1CC2C=CC1C2 (stereo not drawn) [FG‐13, Exo‐N‐(3‐(4‐(2‐(4,5‐dihydrothiazol‐2‐yl)phenyl)piperazin‐1‐yl)propyl) bicyclo [2.2.1] hept‐5‐ene‐2‐carboxamide] | 0.22 µM | – | – | – | – | – | 3.54 µM | – | 0.794 µM | 79.6 µM | 132 ± 8.4% | –
6 | O=C1C2C3C=CC(O3)C2C(=O)N1OCCCN1CCN(c2ccc(C3=NCCS3)cc2)CC1 (stereo not shown) [FG‐12, 2‐(3‐(4‐(4‐(4,5‐dihydrothiazol‐2‐yl) phenyl) piperazin‐1‐yl) propoxy)‐3a,4,7,7a‐tetrahydro‐1H‐4,7‐epoxyisoindole‐1,3(2H)‐dione] | – | 0.286 µM | – | – | – | – | 6.93 µM | 63.1 µM | – | 46.2 µM | 135 ± 18.2% | –
7 | O=C1C2C3C=CC(O3)C2C(=O)N1OCCCN1CCN(c2ccccc2C2=NCCS2)CC1 (stereo not shown) [FG‐10, 2‐(3‐(4‐(2‐(4,5‐dihydrothiazol‐2‐yl) phenyl) piperazin‐1‐yl) propoxy)‐3a,4,7,7a‐tetrahydro‐1H‐4,7‐epoxyisoindole‐1,3(2H)‐dione] | 0.61 µM | – | – | – | – | – | 3.84 µM | – | 3.24 µM | 52 µM | 120 ± 14.9% | –
8 | COc1cc(OC)c(C(=O)CCCCN2CCC3(CC2)NC(=O)NC3=O)cc1NS(=O)(=O)c1ccc(C(F)(F)F)cc1 [RS‐102 221, reference compound] | – | 0.0057 µM | – | – | – | – | – | – | – | – | – | 5‐HT2C pKi (5‐HT2C receptor): 8.24 ± 0.23
9 | O=C1C2C3C=CC(C3)C2C(=O)N1OCCCN1CCN(c2ccc(C3=NCCS3)cc2)CC1 (stereo not shown) [FG‐9, 2‐(3‐(4‐(4‐(4,5‐dihydrothiazol‐2‐yl) phenyl) piperazin‐1‐yl) propoxy)‐3a,4,7,7a‐tetrahydro‐1H‐4,7‐methanoisoindole‐1,3(2H)‐dione] | – | 2.03 µM | No activity | No activity | No activity | do not express any agonist activity | 14.1 µM | 72.4 µM | – | – | – | –
